Columns and labels:
p53^+/+ embryos = assay: Drug toxicity: AO reactivity and development of inhibitor-treated, non-irradiated p53+/+ embryos; format: in vivo, zebrafish; settings: 0 Gy
Description: Chk1 inhibitors hold considerable promise in cancer therapy, as they are expected to synergize with genotoxic agents to kill tumor cells lacking functional p53, without affecting normal cells (Kawabe, 2004; Zhou and Bartek, 2004). […] Gö6976 has not been tested in vivo in a vertebrate model system. We therefore evaluated it as well as specific Chk2 and ATM inhibitors in the zebrafish system. Drug toxicity was monitored by scoring the AO reactivity of inhibitor-treated, but non-irradiated, p53^+/+ embryos (left column in FIG. 8A). Unless otherwise indicated, the inhibitors were applied at 18 hpf (that is, immediately before IR) for a total of 6 hours.
(§1) Immediately before IR, 18-hpf embryos were dechorionated and transferred to fresh egg water containing 1% DMSO, with or without the following inhibitors at indicated final concentrations: KU55933 (10 μM; Sigma) (Hickson et al., 2004); Chk2 Inhibitor II (10 μM; Calbiochem) (Arienti et al., 2005); Gö6976 (1 μM; Calbiochem) (Kohn et al., 2003). Unless stated otherwise, embryos were exposed to the inhibitors for 6 hr, transferred to fresh egg water, rinsed five times for 5 min, and labeled with AO. For experiments with Tg(rag2:EGFP-bcl-2) larvae, larvae were incubated in the inhibitor solution at 4 dpf, irradiated at 5 dpf, rinsed at 6 dpf, incubated in fresh inhibitor for an additional 72 hr, and mounted live at 9 dpf for fluorescence microscopic analysis of EGFP expression.

[1] = test system: Tg(rag2:EGFP-bcl-2) larvae; assay: T-cell radioresistance in Tg(rag2:EGFP-bcl-2) larvae; format: in vivo, zebrafish
Description: To test this notion in vivo, we exploited a zebrafish transgenic line expressing a stable EGFP-bcl-2 fusion transgene under control of the rag2 promoter (Langenau et al., 2005). Such Tg(rag2: EGFP-bcl-2) larvae are characterized by highly radioresistant T- and B-cells at 9 dpf. […] Together with our human cell culture studies, our in vivo analysis of Gö6976 in zebrafish raises the remarkable possibility that tumors disrupting p53 or its attendant downstream pathway—in other words, most human cancers—will respond favorably to Chk1 inhibitors.
as §1

caspase-3 = assay: Western blot of cleaved caspase-3 in HeLa cells; format: cell-based, human; settings: 10 Gy, 24 hpIR, Gö6976 1 μM
Procedure: (§2) Protein extract (5-60 μg) was added to 4× gel loading buffer and 10× denaturing solution (Invitrogen) in appropriate proportions, and samples were incubated at 70° C. for 10 min. Samples were run at 200V for 1 hr on a 4-12% Bis-tris gradient gel (Invitrogen). After electrophoresis, samples were transferred for 1.5 hr (350 mA) to a Nitrocellulose membrane (Millipore) using a submerged transfer apparatus (Bio-Rad). Membranes were then blocked with 5% milk in Tris-buffered saline with 0.1% tween (TBST) and probed overnight at 4° C. with the following antibodies: anti-zebrafish Chk1 (diluted 1:200), anti-zebrafish Chk2 (1:200), anti-P-Cdc2 (1:1000), anti-actin (1:2000), anti-human ATR (1:500) and Stressgen anti-human-caspase-3 (1:500) for zebrafish immunoblots; and anti-caspase-2 (1:200), Upstate anti-caspase-3 (1:500), anti-P-ATM (1:500), anti-ATM (1:500), Santa Cruz anti-human Chk1 (1:1000), Santa Cruz anti-human Chk2 (1:1000), anti-P-Chk1 (1:500), anti-P-Chk2 (1:500), anti-P-H2A.X (1:2000), anti-P-cdc25C (1:1000), anti-P-HSP27 (1:1000), anti-HSP27 (1:1000), anti-P-Cdc2 (1:1000), anti-p53 (1:1000) and anti-GAPDH (1:5000) for immunoblots of human tumor cell lysates. Detailed references for all primary antibodies can be found in the ‘Antibodies’ section elsewhere herein.

human cancer cell lines = assay: Annexin V (+)/PI (-) apoptosis assay in human cancer cell lines; format: cell-based
Procedure: For the Annexin V assay, 2.0×10^5 cells treated with IR (0 or 10 Gy) and/or Gö6976 (0 or 1 μM) for 48 h were washed with cold-PBS and resuspended in staining buffer containing propidium iodide (PI) and fluorescein isothiocynate (FITC)-conjugated anti-AnnexinV antibody (MEBCYTO apoptosis kit, MBL international, MA). After 30 min incubation at room temperature, cells were analyzed by flow cytometry (FACScaliber, BD Bioscience, San Jose, Calif.) and CellQuest analysis program (BD Bioscience). The cells in PI-negative and AnnexinV-positive fraction were evaluated as apoptosis. Data were collected from two independent experiments in which each condition (shRNA, presence or absence of Gö6976) was analyzed in triplicate.

Chk1 = molecular target: T1, Chk1 (Homo sapiens, UniProt O14757); assay: Western blot of Chk1 activity (Cdc2 Tyr15 and CDC25C Ser216 phosphorylation) in irradiated HeLa cells; format: cell-based; parameters: endogenous in cells; host or cells: HeLa; settings: 10 Gy
T1 sequence (O14757 1-476): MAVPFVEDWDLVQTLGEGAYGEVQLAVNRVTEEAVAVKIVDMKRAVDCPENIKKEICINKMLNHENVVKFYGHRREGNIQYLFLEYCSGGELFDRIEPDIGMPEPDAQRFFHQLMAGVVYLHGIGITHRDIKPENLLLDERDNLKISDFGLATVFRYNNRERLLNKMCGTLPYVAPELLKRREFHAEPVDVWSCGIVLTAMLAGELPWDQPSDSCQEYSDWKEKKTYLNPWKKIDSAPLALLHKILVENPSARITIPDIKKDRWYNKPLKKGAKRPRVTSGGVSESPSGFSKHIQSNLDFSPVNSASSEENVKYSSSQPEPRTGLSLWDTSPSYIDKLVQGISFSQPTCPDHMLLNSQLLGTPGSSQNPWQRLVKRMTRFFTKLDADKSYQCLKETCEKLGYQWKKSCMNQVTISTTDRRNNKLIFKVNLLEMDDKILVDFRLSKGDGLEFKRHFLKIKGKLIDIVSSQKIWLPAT
Procedure: as §2

MK-2 = MK-2 (Homo sapiens, UniProt P49137); assay: Western blot of MK-2 activity (Hsp-27 Ser82 phosphorylation) in irradiated HeLa cells; format: cell-based; parameters: endogenous in cells; host or cells: HeLa
Sequence of MK-2 (P49137 whole entry): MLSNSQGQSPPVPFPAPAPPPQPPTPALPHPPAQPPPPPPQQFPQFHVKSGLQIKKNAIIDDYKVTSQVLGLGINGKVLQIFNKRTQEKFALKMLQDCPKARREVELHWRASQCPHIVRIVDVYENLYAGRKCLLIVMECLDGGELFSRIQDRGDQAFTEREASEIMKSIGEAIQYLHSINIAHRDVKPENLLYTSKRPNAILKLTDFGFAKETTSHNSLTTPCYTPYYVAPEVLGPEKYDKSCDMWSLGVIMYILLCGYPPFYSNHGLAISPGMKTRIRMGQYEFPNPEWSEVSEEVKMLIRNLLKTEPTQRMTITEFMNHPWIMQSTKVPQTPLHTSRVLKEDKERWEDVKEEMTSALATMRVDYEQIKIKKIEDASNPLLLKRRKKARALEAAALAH
Procedure: as §2

`Cn1c2ccccc2c2c3c(c4c5ccccc5n(CCC#N)c4c21)CNC3=O` [Gö6976] was tested. Which “long-term development of non-irradiated treated embryos” value (p53^+/+ embryos; p53+/+) did it give?
The value was “developed into normal adults without overt signs of spontaneous tumorigenesis or other pathologies”.

And the “toxicity of the dose used (AO reactivity of non-irradiated embryos)” value (p53^+/+ embryos; Gö6976 1 μM, KU55933 10 μM, Chk2 Inhibitor II 10 μM)?
Its value is “non-toxic”.

What about the “larvae with T-cell radioresistance suppressed” value ([1]; 15 Gy IR at 5 dpf, Gö6976 for 5 days from 4 dpf, scored 9 dpf, n=26, DMSO: none (n=28)) of the same compound?
The value was 58%.

And the “adverse effects of systemic treatment” value ([1]; larvae, 5 days exposure)?
Its value is “without any apparent adverse effects”.

And the “levels of cleaved caspase-3” value (caspase-3)?
Its value is “negligible”.

What about the apoptosis (human cancer cell lines; TP53+/+ HCT116 cells, IR+Gö6976) of the same compound?
Its apoptosis is “moderate, yet significant increase in apoptosis”.

And the “apoptosis versus single- or no-treatment controls” value (human cancer cell lines; TP53 null or mutant lines, 10 Gy IR+Gö6976, 48 hpIR)?
Its value is “increases in caspase-2 cleavage and apoptosis”.

And the Chk1 inhibition (Chk1; 1 μM)?
Its Chk1 inhibition is “potent Chk1 inhibition”.

And the “phosphorylation of Chk1 readouts CDC2 and CDC25C” value (Chk1; increasing concentrations, 24 hpIR)?
Its value is “inhibited the phosphorylation of CDC2 and CDC25C”.

What about the MK-2 activity (MK-2; Gö6976 1 μM) of the same compound?
Its MK-2 activity is “an increase in MK-2 activity”.

And the “HSP-27 phosphorylation at serine 82 (MK-2 site)” value (MK-2; Gö6976, increasing concentrations, 10 Gy, 24 hpIR)?
Its value is “did not block HSP-27 phosphorylation at serine 82”.

From patent publication US9000027B2, “Chk1 suppresses a caspase-2 apoptotic response to DNA damage that bypasses p53, bcl-2 and caspase-3” (Dana-Farber Cancer Institute, Inc., priority 2008, dated 2015)
